Reference: US5977133A, “Pyridone antibiotic with improved safety profile” (priority 1998, dated 1999)

Assays:
H. pylori = experiment: In vitro MIC, agar dilution; assay type: cell-based; settings: H. pylori, 17 isolates
S. pneumoniae (PenS) = experiment: In vitro MIC, agar dilution; assay type: cell-based; settings: S. pneumoniae (PenS), 20 isolates
E. faecalis (VanS) = experiment: In vitro MIC, agar dilution; assay type: cell-based; settings: E. faecalis (VanS), 17 isolates
P. aeruginosa (CiproS) = experiment: In vitro MIC, agar dilution; assay type: cell-based; settings: P. aeruginosa (CiproS), 24 isolates
C. perfringens = experiment: microbe, parasite or virus in culture; assay type: cell-based; settings: C. perfringens, 13 isolates
E. coli = experiment: In vitro MIC, agar dilution; assay type: cell-based; settings: 25 isolates
Procedure: (§1) Each plate was inoculated with 1:100 (or 1:10 for slow-growing strains, primarily Micrococcus and Streptococcus) dilutions of up to 32 different microorganisms, using a Steers replicator block calibrated to deliver approximately 10^4 colony forming units (CFU's). The inoculated plates were incubated at from about 35° C. to about 37 ° C. for approximately 20-24 hours. In addition, a control plate using BHI agar containing no test compound was prepared and incubated at the beginning and at the end of each test. The quinolone antibacterial ciprofloxacin was used as a control ("Cntl").
(§2) The numbers below the microorganism species indicate the nunbers of isolates tested. […] The MIC is defined as the lowest concentration of test compound yielding no growth (a slight haze or sparsely isolated colonies at the inoculum spot) as compared to the growth control containing no test compound.

Salmonella spp. = experiment: In vitro MIC, agar dilution; assay type: cell-based; settings: 23 isolates
Procedure: as §1, §2

H. influenzae = experiment: In vitro MIC, agar dilution; assay type: cell-based; settings: H. influenzae, 18 isolates
M. avium = experiment: In vitro MIC, agar dilution; assay type: cell-based; settings: M. avium, 20 isolates
Legionella spp. = experiment: microbe, parasite or virus in culture; assay type: cell-based
S. epidermidis (CiproS) = experiment: In vitro MIC, agar dilution; assay type: cell-based; settings: S. epidermidis (CiproS), 23 isolates
E. faecium (CiproS) = experiment: In vitro MIC, agar dilution; assay type: cell-based; settings: E. faecium (CiproS), 16 isolates
E. faecium (CiproR) = experiment: In vitro MIC, agar dilution; assay type: cell-based; settings: E. faecium (CiproR), 2 isolates
C. freundii = experiment: In vitro MIC, agar dilution; assay type: cell-based; settings: C. freundii, 20 isolates
S. aureus (CiproR) = experiment: In vitro MIC, agar dilution; assay type: cell-based; settings: S. aureus (CiproR), 25 isolates
S. pyogenes = experiment: In vitro MIC, agar dilution; assay type: cell-based; settings: S. pyogenes, 21 isolates
M. catarrhalis = experiment: In vitro MIC, agar dilution; assay type: cell-based; settings: M. catarrhalis, 18 isolates
S. epidermidis (CiproR) = experiment: In vitro MIC, agar dilution; assay type: cell-based; settings: S. epidermidis (CiproR), 11 isolates
C. difficile = experiment: In vitro MIC, agar dilution; assay type: cell-based; settings: C. difficile, 10 isolates
S. pneumoniae (PenR) = experiment: In vitro MIC, agar dilution; assay type: cell-based; settings: S. pneumoniae (PenR), 25 isolates
M. pneumoniae = experiment: In vitro MIC, agar dilution; assay type: cell-based; settings: M. pneumoniae, 7 isolates
P. mirabilis = experiment: In vitro MIC, agar dilution; assay type: cell-based; settings: P. mirabilis, 20 isolates
N. gonorrhoeae = experiment: In vitro MIC, agar dilution; assay type: cell-based; settings: N. gonorrhoeae, 12 isolates
P. aeruginosa (CiproR) = experiment: In vitro MIC, agar dilution; assay type: cell-based; settings: P. aeruginosa (CiproR), 20 isolates
Enterococcus spp. (VanR) = experiment: In vitro MIC, agar dilution; assay type: cell-based; settings: Enterococcus spp. (VanR), 21 isolates
B. fragilis = experiment: In vitro MIC, agar dilution; assay type: cell-based; settings: B. fragilis, 18 isolates
S. aureus (CiproS) = experiment: In vitro MIC, agar dilution; assay type: cell-based; settings: S. aureus (CiproS), 21 isolates
Enterobacter spp. = experiment: In vitro MIC, agar dilution; assay type: cell-based; settings: Enterobacter spp., 35 isolates
[1] = mice, single intraperitoneal injection, 21 days
Klebsiella spp. = experiment: In vitro MIC, agar dilution; assay type: cell-based; settings: Klebsiella spp., 29 isolates
Providencia spp. = experiment: In vitro MIC, agar dilution; assay type: cell-based; settings: Providencia spp., 28 isolates
S. pneumoniae (CiproR) = experiment: In vitro MIC, agar dilution; assay type: cell-based; settings: S. pneumoniae (CiproR), 3 isolates

In the case of `Cc1c(N2CC[C@H](N)C2)c(F)cn2c(=O)c(C(=O)O)cc(C3CC3)c12.Cl` [Example 3, 1-cyclopropyl-8-(3(S)-3-amino-1-pyrrolidinyl)-7-fluoro-9-methyl-4-oxo-4H-quinolizine-3-carboxylic acid hydrochloride], the MIC50 (H. pylori) was 0.12 mg/L, the MIC90 (H. pylori) was 0.25 mg/L and the “MIC Range” value (H. pylori) was 0.06 to 0.5 mg/L. The MIC50 (S. pneumoniae (PenS)) was 0.06 mg/L, the MIC90 (S. pneumoniae (PenS)) was 0.12 mg/L and the “MIC Range” value (S. pneumoniae (PenS)) was 0.06 to 0.12 mg/L. For the same molecule, the MIC50 (E. faecalis (VanS)) was 0.25 mg/L, the MIC90 (E. faecalis (VanS)) was 0.25 mg/L and the “MIC Range” value (E. faecalis (VanS)) was 0.12 to 0.25 mg/L. For the same molecule, the MIC50 (P. aeruginosa (CiproS)) was 0.25 mg/L, the MIC90 (P. aeruginosa (CiproS)) was 1 mg/L and the “MIC Range” value (P. aeruginosa (CiproS)) was 0.12 to 1 mg/L. For the same molecule, the MIC50 (C. perfringens) was 0.12 mg/L, the MIC90 (C. perfringens) was 0.25 mg/L and the “MIC Range” value (C. perfringens) was 0.06 to 0.25 mg/L. It also gave an MIC50 (E. coli) of 0.03 mg/L, an MIC90 (E. coli) of 0.06 mg/L and an MIC50 (Salmonella spp.) of 0.06 mg/L. The MIC90 (Salmonella spp.) was 0.06 mg/L, the MIC50 (H. influenzae) was 0.015 mg/L and the MIC90 (H. influenzae) was 0.03 mg/L. The “MIC Range” value (H. influenzae) was 0.008 to 0.06 mg/L, the MIC50 (M. avium) was 4 mg/L and the MIC90 (M. avium) was 16 mg/L. The “MIC Range” value (M. avium) was 1 to 32 mg/L, the MIC50 (Legionella spp.) was 0.5 mg/L and the MIC90 (Legionella spp.) was 1 mg/L. The “MIC Range” value (Legionella spp.) was 0.5 to 1 mg/L, the MIC50 (S. epidermidis (CiproS)) was 0.03 mg/L and the MIC90 (S. epidermidis (CiproS)) was 0.06 mg/L. The “MIC Range” value (S. epidermidis (CiproS)) was 0.015 to 0.06 mg/L, the MIC50 (E. faecium (CiproS)) was 0.5 mg/L and the MIC90 (E. faecium (CiproS)) was 1 mg/L. For the same molecule, the “MIC Range” value (E. faecium (CiproS)) was 0.25 to 1 mg/L, the “MIC Range” value (E. faecium (CiproR)) was 1 to 4 mg/L and the MIC50 (C. freundii) was 0.06 mg/L. For the same molecule, the MIC90 (C. freundii) was 0.25 mg/L, the “MIC Range” value (C. freundii) was 0.015 to 0.25 mg/L and the MIC50 (S. aureus (CiproR)) was 0.25 mg/L. For the same molecule, the MIC90 (S. aureus (CiproR)) was 0.5 mg/L, the “MIC Range” value (S. aureus (CiproR)) was 0.06 to 2 mg/L and the MIC50 (S. pyogenes) was 0.03 mg/L. For the same molecule, the MIC90 (S. pyogenes) was 0.06 mg/L, the “MIC Range” value (S. pyogenes) was 0.015 to 0.06 mg/L and the MIC50 (M. catarrhalis) was 0.06 mg/L. For the same molecule, the MIC90 (M. catarrhalis) was 0.06 mg/L, the “MIC Range” value (M. catarrhalis) was 0.015 to 0.06 mg/L and the MIC50 (S. epidermidis (CiproR)) was 0.25 mg/L. For the same molecule, the MIC90 (S. epidermidis (CiproR)) was 1 mg/L, the “MIC Range” value (S. epidermidis (CiproR)) was 0.25 to 2 mg/L and the MIC50 (C. difficile) was 0.25 mg/L. For the same molecule, the MIC90 (C. difficile) was 0.5 mg/L, the “MIC Range” value (C. difficile) was 0.25 to 0.5 mg/L and the MIC50 (S. pneumoniae (PenR)) was 0.12 mg/L. The MIC90 (S. pneumoniae (PenR)) was 0.12 mg/L, the “MIC Range” value (S. pneumoniae (PenR)) was 0.06 to 0.12 mg/L and the “MIC Range” value (M. pneumoniae) was 0.06 to 0.12 mg/L. For the same molecule, the MIC50 (P. mirabilis) was 0.12 mg/L, the MIC90 (P. mirabilis) was 0.25 mg/L and the “MIC Range” value (P. mirabilis) was 0.06 to 0.25 mg/L. For the same molecule, the MIC50 (N. gonorrhoeae) was 0.008 mg/L, the MIC90 (N. gonorrhoeae) was 0.03 mg/L and the “MIC Range” value (N. gonorrhoeae) was 0.008 to 0.06 mg/L. The MIC50 (P. aeruginosa (CiproR)) was 16 mg/L, the MIC90 (P. aeruginosa (CiproR)) was 32 mg/L and the “MIC Range” value (P. aeruginosa (CiproR)) was 16 to 64 mg/L. For the same molecule, the MIC50 (Enterococcus spp. (VanR)) was 0.5 mg/L, the MIC90 (Enterococcus spp. (VanR)) was 1 mg/L and the “MIC Range” value (Enterococcus spp. (VanR)) was 0.12 to 4 mg/L. For the same molecule, the MIC50 (B. fragilis) was 0.25 mg/L, the MIC90 (B. fragilis) was 0.5 mg/L and the “MIC Range” value (B. fragilis) was 0.12 to 0.5 mg/L. For the same molecule, the “MIC Range” value (S. aureus (CiproS)) was 0.015 to 0.06 mg/L, the MIC50 (Enterobacter spp.) was 0.06 mg/L and the MIC90 (Enterobacter spp.) was 0.12 mg/L. The “MIC Range” value (Enterobacter spp.) was 0.03 to 0.5 mg/L, the LD50 [1] was 105.0 mg/kg and the MIC50 (Klebsiella spp.) was 0.12 mg/L. The MIC90 (Klebsiella spp.) was 0.12 mg/L, the “MIC Range” value (Klebsiella spp.) was 0.015 to 0.5 mg/L and the MIC50 (Providencia spp.) was 0.12 mg/L. For the same molecule, the MIC90 (Providencia spp.) was 0.25 mg/L, the “MIC Range” value (Providencia spp.) was 0.03 to 1 mg/L and the “MIC Range” value (S. pneumoniae (CiproR)) was 0.12 to 0.25 mg/L.
